Activity calls are given as the source filed them. The calls are words filed in the database; no cut-off is given here.
What was measured:
MCF-10A [1] = test: Inhibition of MPC in human MCF-10A cells assessed as cellular lactate production measured per 10^6 cells at 10 uM measured for 36 hrs; format: cell-based
MCF-10A [2] = test: Inhibition of MPC in human MCF-10A cells assessed as lactate concentration at 10 uM measured for 36 hrs; format: cell-based
Mus musculus [3] = organism: Mus musculus; test: Induction of hair growth in C57BL/6J mouse assessed as appearance of hair growth patches measured on day 17; format: functional, organism-based; details: time 17.0 day
MCF-10A [4] = test: Inhibition of MPC in human MCF-10A cells assessed as cellular lactate production measured per 10^6 cells measured for 36 hrs; format: cell-based; details: dose 10.0 µM
Mus musculus [5] = organism: Mus musculus; test: Induction of hair growth in C57BL/6J mouse assessed as increase in pigmentation measured after 10 days; format: functional, organism-based; details: time 10.0 day

Row | SMILES | Activity (MCF-10A [1]) | Activity (MCF-10A [2]) | Activity (Mus musculus [3]) | Activity (MCF-10A [4]) | Activity (Mus musculus [5])
1 | N#C/C(=C\c1cn(-c2ccncc2)c2ccccc12)C(=O)O | 0.014 µmol | 0.059 µmol/mL |  |  | 
2 | N#C/C(=C\c1cn(Cc2cccnc2)c2ccccc12)C(=O)O | 0.093 µmol | 0.393 µmol/mL |  |  | 
3 | N#C/C(=C\c1cn(-c2ccc3ccccc3c2)c2ccccc12)C(=O)O | 0.123 µmol | 0.517 µmol/mL |  |  | 
4 | N#C/C(=C\c1cn(Cc2ccc3ccccc3c2)c2ccccc12)C(=O)O | 0.292 µmol | 1.23 µmol/mL |  |  | 
5 | N#C/C(=C\c1cn(-c2ccccc2)c2ccccc12)C(=O)O | 0.185 µmol | 0.778 µmol/mL | Active | Dose-dependent-effect | 
6 | CCOC(=O)/C(C#N)=C/c1cn(Cc2ccncc2)c2ccccc12 | -0.005 µmol | -0.02 µmol/mL |  |  | 
7 | CCOC(=O)/C(C#N)=C/c1cn(Cc2ccc3ccccc3c2)c2ccccc12 | 0.064 µmol | 0.268 µmol/mL |  |  | 
8 | CCOC(=O)/C(C#N)=C/c1cn(-c2ccc3ccccc3c2)c2ccccc12 | 0.104 µmol | 0.438 µmol/mL |  |  | 
9 | CCOC(=O)/C(C#N)=C/c1cn(-c2ncccn2)c2ccccc12 | 0.081 µmol | 0.342 µmol/mL |  |  | 
10 | CCOC(=O)/C(C#N)=C/c1cn(-c2ccncc2)c2ccccc12 | 0.006 µmol | 0.025 µmol/mL |  |  | 
11 | CCOC(=O)/C(C#N)=C/c1cn(-c2ccccn2)c2ccccc12 | 0.148 µmol | 0.625 µmol/mL |  |  | 
12 | CCOC(=O)/C(C#N)=C/c1cn(Cc2ccccn2)c2ccccc12 | -0.03 µmol | -0.128 µmol/mL |  |  | 
13 | N#C/C(=C\c1cn(-c2cccnc2)c2ccccc12)C(=O)O | 0.06 µmol | 0.251 µmol/mL |  |  | 
14 | Cn1cnc(-n2cc(/C=C(\C#N)C(=O)O)c3ccccc32)c1 | -0.001 µmol | -0.003 µmol/mL |  |  | 
15 | N#C/C(=C\c1cn(Cc2ccncc2)c2ccccc12)C(=O)O | -0.08 µmol | -0.337 µmol/mL |  |  | 
16 | N#C/C(=C\c1cn(-c2ncccn2)c2ccccc12)C(=O)O | 0.1 µmol | 0.421 µmol/mL |  |  | 
17 | CCOC(=O)/C(C#N)=C/c1cn(-c2cncnc2)c2ccccc12 | 0.006 µmol | 0.025 µmol/mL |  |  | 
18 | CCOC(=O)/C(C#N)=C/c1cn(-c2cn(C)cn2)c2ccccc12 | 0.152 µmol | 0.64 µmol/mL |  |  | 
19 | N#C/C(=C\c1cn(-c2cncnc2)c2ccccc12)C(=O)O | 0.13 µmol | 0.546 µmol/mL |  |  | 
20 | CCOC(=O)/C(C#N)=C/c1cn(Cc2cccnc2)c2ccccc12 | 0.208 µmol | 0.874 µmol/mL |  |  | 
21 | N#C/C(=C\c1cn(-c2ccccn2)c2ccccc12)C(=O)O | 0.116 µmol | 0.489 µmol/mL |  |  | 
22 | N#C/C(=C\c1cn(Cc2ccccn2)c2ccccc12)C(=O)O | 0.322 µmol | 1.35 µmol/mL | Active |  | Active; Drug Entered To Anagen Phase
23 | CCOC(=O)/C(C#N)=C/c1cn(-c2cccnc2)c2ccccc12 | 0.033 µmol | 0.138 µmol/mL |  |  | 

Source: ChEMBL document CHEMBL6092124, “Design, synthesis and biological evaluation of novel cyano-cinnamate derivatives as mitochondrial pyruvate carrier inhibitors” (Bioorg Med Chem Lett, 2024)
